Assay results as given in patent US7538120B2, “Method of treating inflammatory diseases” (Array Biopharma Inc., priority 2003, dated 2009).
Entries after “also recorded” stand apart in the source; their conditions may differ.

Key:
[1] = test system: carrageenan paw edema in rats; experiment: Carrageenan paw edema model in rats; type: in vivo, rat; details: for paw weight: 3, 10 and 30 mg/kg oral, 2 h before carrageenan, 4 h after injection, FIG. 11; for ED50: Rattus norvegicus, oral, single dose, read-out: ED50 (paw weight); for activity compared with indomethacin: vs indomethacin 2 mg/kg (positive control)
Description: The rat carrageenan paw edema model of inflammation was utilized to evaluate the effectiveness of AR-13 and AR-14 in ameliorating swelling and inflammation.
Male Lewis rats (7-9 weeks of age; 10 per group) were acclimated for at least 7 days after arrival.
Acclimated animals were randomized into groups by body weight. Animals were treated orally with AR-13 or AR-14 (3, 10 or 30 mg/kg) or with a positive control (indomethacin, 2 mg/kg). After 2 hours, the animals were anesthetized with Isoflurane and given an intradermal injection of 1.2% carrageenan into the right hind footpad. Four hours after the carrageenan injection, the animals were sacrificed with carbon dioxide inhalation and both paws were removed at the medial malleolus and weighed. The difference in weight between the right (carrageenan) and left (normal) paws was calculated.

[2] = test system: indomethacin-induced IBD in rats; experiment: Indomethacin-induced inflammatory bowel disease (model of Crohn's disease) in rats; type: in vivo
Description: This study evaluated AR-14 (PO, QD) in a model of Crohn's disease (indomethacin induced intestinal injury) in rats to determine if beneficial effects could be detected in this IBD model.
Rats received two subcutaneous administrations of indomethacin (7.5 mg/kg, in 5% NaHCO3) spaced 24 hours apart. Rats received once daily oral doses of vehicle, AR-14 (1, 3, 10 or 30 mg/kg) or dexamethasone (0.1 mg/kg). Rats were euthanized and evaluated for effects of treatment at day 4 post-initial indomethacin injection. Body weights were taken as well as intestinal weights per 10 cm of area at risk.
A clinical scoring index (Table 8) was used to assess disease progression. Intestines were scored for gross lesions and multiple sections of gut taken for histology (5 sections per rat spaced equally along area at risk).
Five equally spaced sections from area at risk were scored for necrosis and inflammation (0,0) (1,3) etc., according to the criteria in Tables 9 and 10.

[3] = test system: MEK; experiment: MEK inhibition in vivo (stated in summary, no method given)
[4] = test system: type II collagen-induced arthritis in rats; experiment: Established type II collagen-induced arthritis (CIA) in rats; type: in vivo
Description: Type II collagen-induced arthritis (CIA) in rats is an experimental model of arthritis that has a number of pathologic, immunologic, and genetic features in common with rheumatoid arthritis.
Female Lewis rats (7-9 weeks of age; 8 per group for arthritis, 4 per group for normal control) were acclimated for 7 days after arrival.
Acclimated animals were anesthetized with Isoflurane. The disease was induced by immunization of the rats with type II collagen (equal mixture of 4 mg/mL bovine type II collagen in 0.01 N acetic acid and Freund's incomplete adjuvant) by injection (day 0). On day 6, the rats were anesthetized again for the second collagen injection. Each animal received 300 μL of the collagen mixture on days 0 and 6, which was spread over 3 sites on the back.
Caliper measurements of normal (pre-disease) right and left ankle joints were taken on day 9 post-collagen injection. On days 10-11, onset of arthritis occurred and rats were randomized into treatment groups. Randomization into each group was done after ankle joint swelling was established in at least one hind paw.
Once enrolled in the treatment groups, treatment with once daily oral dosing of AR-14 (1, 3, 10, 30 or 60 mg/kg) or indomethacin (1 mg/kg) was initiated. Animals receiving vehicle or compound were enrolled and daily dosing was initiated using a volume of 5 mL/kg for oral solutions. ENBREL (etanercept) treatment was on days 11 and 15 (10 mg/kg) by subcutaneous administration. Rats were weighed on days 11-18 and caliper measurements of ankles were taken every day. Final body weights were taken on day 19. On day 19, animals were euthanized, both hind paws and knees were removed, hind paws were weighed and then (with knees) placed in formalin.
Following 1-2 days in fixative and then 4-5 days in decalcifier, the ankle joints and knees were processed, embedded, sectioned and stained with toluidine blue.
A clinical scoring index was used to assess disease progression. Collagen arthritic ankles and knees were given scores of 0-5 for inflammation, pannus formation and bone resorption according to the criteria in Tables 1-7.
Clinical data for ankle joint diameter were analyzed by determining the area under the dosing curve (AUC). For calculation of AUC, the daily measurements of ankle joints (using a caliper) for each rat were entered into Microsoft Excel and the area between the treatment days after the onset of disease to the termination day was computed. Means for each group were determined and percent inhibition from arthritis controls was calculated by comparing values for treated and normal animals. Data were analyzed by the Mann Whitney or Student's t test. Paw weights and histologic parameters (mean±SE) for each group were analyzed for differences using the Mann Whitney or Student's t test. In both cases, significance was set at p≦0.05.
Percent inhibition of paw weight and AUC was calculated using the following formula: % Inhibition=A−(B/A)×100
wherein A=(Mean Disease Control−Mean Normal) and B=(Mean Treated−Mean Normal).

[5] = test system: adjuvant-induced arthritis in rats; experiment: Adjuvant-induced arthritis (AIA) in rats; type: in vivo
Description: Male Lewis rats (7-9 weeks of age; 8 per group for arthritis, 4 per group for normal control) were acclimated for 7 days after arrival.
Acclimated animals were randomized into groups by body weight and then anesthetized with Isoflurane and given lipoidal amine (LA) in Freund's complete adjuvant (100 μL injection of 7 mg LA, intradermal administration at the base of the tail, Day 0).
Caliper measurements of normal (pre-disease) right and left ankle joints were taken on day 7 post-adjuvant injection. On day 8, dosing began for vehicle and AR-14 treatment groups. Methotrexate treatment (0.075 mg/kg) began on day 0 prior to adjuvant injection.
Once enrolled in the treatment group, treatment with once daily oral doses of AR-14 (1, 3, 10 or 30 mg/kg) was initiated. […] Animals receiving vehicle or compound were enrolled and daily dosing was initiated using a volume of 5 mL/kg for oral solutions on days 8-14. Rats were weighed on days 8-14 and caliper measurements of ankles were taken every day. Final body weights and caliper measurements of ankles and paws were taken on day 15. On day 15, animals were euthanized, both hind paws were removed, and the hind paws weighed and then placed in formalin for histopathologic analyses. Spleens were also removed, weighed and placed in formalin for histopathologic analyses.

[6] = 10 and 30 mg/kg vs dexamethasone 0.1 mg/kg

## O=C(NOCCO)c1cn2ccnc2c(Cl)c1Nc1ccc(Br)cc1F [AR-13, 7-(4-bromo-2-fluorophenylamino)-8-chloroimidazo[1,2-a]pyridine-6-carboxylic acid (2-hydroxyethoxy)-amide]
[1]
  paw weight: significantly inhibit
  ED50: ~10 mg/kg
  activity compared with indomethacin: superior to the positive control indomethacin

## O=C(NOCCO)c1cn2ccnc2c(Cl)c1Nc1ccc(Br)cc1Cl [AR-14, 7-(4-bromo-2-chlorophenylamino)-8-chloroimidazo[1,2-a]pyridine-6-carboxylic acid (2-hydroxyethoxy)-amide]
[2]; 30 mg/kg, FIG. 10
  histopathology of the gut (necrosis and inflammation scored) compared with dexamethasone: significantly more efficacious than dexamethasone
[2]; 3, 10 and 30 mg/kg, after 4 days, FIG. 9
  small intestine weight gain as a result of edema/inflammation: significantly inhibited
[2]; [6]
  inhibition of gross lesion score compared with dexamethasone: significantly better than dexamethasone
  inhibition of intestinal inflammation and edema, small intestine necrosis and inflammation compared with dexamethasone: significantly better than dexamethasone
[2]; all doses (1, 3, 10, 30 mg/kg), after 4 days, FIG. 8
  gross lesion score (small intestine): significantly inhibited
[2]; all doses administered
  tolerability: well tolerated
[2]; once daily dosing at 10 mg/kg
  inhibition of disease (gut score and weight and microscopic changes): significant inhibition
[1]
  paw weight: significantly inhibit
  ED50: ~4 mg/kg
  activity compared with indomethacin: superior to the positive control indomethacin
[3]
  selectivity for MEK in vivo: selective inhibitor of MEK in vivo
[4]; 10 mg/kg once daily oral
  progression of established disease (arthritis): stopped the progression; also recorded: significantly inhibited
[4]; 10 mg/kg, after 7 days
  ankle histopathology (joints): Near normal joints with minimal inflammation
[4]; 60 mg/kg once daily oral
  established disease, improvement: improvement to normal
[4]; 1 and 3 mg/kg, after 7 days, FIG. 3
  pannus formation, cartilage damage and bone resorption (ankle histopathology): significantly inhibited
[4]; AR-14 10 mg/kg
  ankle histopathology compared with indomethacin or ENBREL: significantly better than indomethacin or ENBREL
[4]; AR-14 10 mg/kg vs ENBREL 10 mg/kg s.c.
  activity on ankle diameter compared with ENBREL (etanercept): better than that of ENBREL
[4]; AR-14 10 mg/kg vs indomethacin 1 mg/kg
  activity on ankle diameter compared with indomethacin: equivalent to indomethacin
[4]; Rattus norvegicus, 168 h, after 7 days, once daily oral, read-out: ED50 (inhibition of body weight loss)
  ED50: 4.57 mg/kg
[4]; all doses administered (1, 3, 10, 30, 60 mg/kg, once daily oral)
  tolerability: well tolerated
[4]; all doses tested (1-60 mg/kg), over 7 days, FIG. 1
  ankle swelling (ankle/paw diameter) compared to vehicle control: significantly inhibited
[4]; all doses tested, after 7 days, FIG. 2
  body weight loss: significantly inhibited
[4]; dose of 1 mg/kg, 1 mg/kg
  joint destruction: significantly inhibited; also recorded: significant inhibition
[4]; doses of 30 and 60 mg/kg, after 7 days
  body weight: near normal body weights
[4]; once daily oral 10 mg/kg
  acute gross and microscopic inflammation: reversal
[5]; 30 mg/kg
  progression of established disease: stopped the progression of established disease and causes improvement to normal
[5]; 30 mg/kg, after 15 days, FIG. 5
  body weight loss: significantly inhibited
[5]; 30 mg/kg, after 15 days, comparable to methotrexate
  joints (paw weight study): Near normal joints with minimal inflammation
[5]; 3, 10 and 30 mg/kg, after 15 days, FIG. 7
  splenomegaly (relative spleen weight): significantly inhibited
[5]; 10 and 30 mg/kg
  inhibition of splenomegaly compared with methotrexate: comparable to that seen with methotrexate
[5]; AR-14 30 mg/kg vs methotrexate 0.075 mg/kg
  activity compared with methotrexate: equivalent to methotrexate
[5]; all doses administered (1, 3, 10, 30 mg/kg, once daily oral)
  tolerability: well tolerated
[5]; all doses tested, over 15 days, FIG. 4
  ankle swelling (paw diameter) compared to vehicle control: significantly inhibited
[5]; all doses, after 15 days, FIG. 6
  paw weight gain (edema/inflammation) compared to vehicle control: significantly inhibited
[5]; once daily oral 30 mg/kg
  acute gross and microscopic inflammation: reversal
